Test results reported in patent publication US5637725A, “Substituted aryl and cycloalkyl imidazolones; a new class of GABA brain receptor ligands” (Neurogen Corporation, priority 1995, dated 1997).

Molecular target: GABAa receptor
Assay: [3H]-RO15-1788 (Flumazenil) binding assay for GABAa receptor activity, rat cortical tissue
Conditions: 0.5 nM 3H-RO15-1788; rat cortical tissue homogenate; 30 min at 4° C.; nonspecific binding with 1.0 mM diazepam
Description: The pharmaceutical utility of compounds of this invention are indicated by the following assay for GABAa receptor activity.
Assays are carried out as described in Thomas and Tallman (J. Bio. Chem. 156: 9838-9842, J. Neurosci. 3: 433-440, 1983). Rat cortical tissue is dissected and homogenized in 25 volumes (w/v) of 0.05M Tris HCl buffer (pH 7.4 at 4° C.). The tissue homogenate is centrifuged in the cold (4°) at 20,000×g for 20'. The supernatant is decanted and the pellet is rehomogenized in the same volume of buffer and again centrifuged at 20,000×g. The supernatant is decanted and the pellet is frozen at -20° C. overnight. The pellet is then thawed and rehomogenized in 25 volume (original wt/vol) of buffer and the procedure is carried out twice. The pellet is finally resuspended in 50 volumes (w/vol of 0.05M Tris HCl buffer (pH 7.4 at […]).
Incubations contain […] of radioligand 0.5 nM (^3 H-RO15-1788 [^3 H-Flumazenil] specific activity 80 Ci/mmol), drug or blocker and buffer to a total volume of […]. Incubations are carried for 30 min at 4° C. then are rapidly filtered through GFB filters to separate free and bound ligand. Filters are washed twice with fresh 0.05M Tris HCl buffer (pH 7.4 at 4° C.) and counted in a liquid scintillation counter. […] diazepam is added to some tubes to determine nonspecific binding. Data are collected in triplicate determinations, averaged and % inhibition of total specific binding is calculated. Total Specific Binding=Total-Nonspecific. In some cases, the amounts of unlabeled drugs is varied and total displacement curves of binding are carried out. Data are converted to a form for the calculation of IC50 and Hill Coefficient (nH).
Work on `O=c1[nH]c2c(n1-c1nc3ccc(F)c(F)c3o1)CCCCC2` [Compound 1] yielded a Ki of 3 nM.
In the case of `O=c1[nH]c2c(n1-c1nc3ccc(F)cc3o1)CCCCC2` [Compound 2], the Ki is reported as 4.6 nM.
In the case of `O=c1[nH]c2cc(F)ccc2n1-c1nc2cccc(F)c2o1` [Compound 3, 3-(2-(7-fluorobenzoxazyl))-6-fluorobenzimidazol-2-(1H)-one], the Ki is reported as 14 nM.
In the case of `O=c1[nH]c2cc(F)ccc2n1-c1nc2ccc(F)cc2o1` [Compound 4, 3-(2-(6-fluorobenzoxazyl))-6-fluorobenzimidazol-2-(1H)-one], the Ki is reported as 5 nM.
`O=c1[nH]c2c(n1-c1nc3ccc(F)c(F)c3o1)CCCC2` [Compound 5] gave a Ki of 21 nM.
With `COc1ccc2oc(-n3c4c([nH]c3=O)CCCC4)nc2c1` [Compound 6] the Ki was 81 nM.

Tested on: GABA receptor
Assay: not given
Conditions: brain membranes; cited from earlier work
In the case of `CN1CCc2cc3c(cc2[C@H]1[C@@H]1OC(=O)c2c1ccc1c2OCO1)OCO3` [(+) bicuculline], the “blockade of enhancement of benzodiazepine binding by GABA agonists” value is given as “blocked”.
For `CN1CCc2cc3c(cc2[C@@H]1[C@H]1OC(=O)c2c1ccc1c2OCO1)OCO3` [(-) bicuculline], the “blockade of enhancement of benzodiazepine binding by GABA agonists” value is listed as “much less active”.
